{"source": "patent US10336762B2", "about": "(priority 2017, dated 2019)", "key": {"IRAK4 enzyme": {"target": "IRAK4 enzyme (Homo sapiens (Human), UniProt Q9NWZ3)", "sequence (Q9NWZ3 whole entry)": "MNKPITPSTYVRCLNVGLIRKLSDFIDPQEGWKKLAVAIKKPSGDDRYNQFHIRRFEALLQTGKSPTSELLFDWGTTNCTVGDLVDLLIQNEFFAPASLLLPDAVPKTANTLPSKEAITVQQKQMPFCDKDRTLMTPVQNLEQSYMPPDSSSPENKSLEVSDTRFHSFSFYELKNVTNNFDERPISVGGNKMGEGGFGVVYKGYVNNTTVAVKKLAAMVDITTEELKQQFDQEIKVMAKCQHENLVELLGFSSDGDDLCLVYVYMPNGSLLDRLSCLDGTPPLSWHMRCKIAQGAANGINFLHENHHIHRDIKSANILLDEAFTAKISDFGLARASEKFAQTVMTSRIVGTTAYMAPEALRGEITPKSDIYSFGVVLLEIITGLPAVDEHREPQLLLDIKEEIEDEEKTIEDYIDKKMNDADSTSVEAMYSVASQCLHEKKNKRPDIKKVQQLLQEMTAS", "experiment": "biochemical", "format": "biochemical", "conditions": "IRAK4 enzyme, TR-FRET, 500 μM ATP"}, "TNFα": {"tested_on": "TNFα", "experiment": "cells", "format": "cell-based, human", "conditions": "Homo sapiens, Monocyte, LPS-stimulated human monocytes, TNFα by TR-FRET; read-out: EC50 TNF"}}, "data": [{"smiles": "N#Cc1cnn2c(-c3cc(NC45CCC(O)(CC4)CC5)c(C(=O)N[C@@H]4CCNC4=O)cn3)ccc2c1", "note": "[Example 959, (R)-6-(3-cyanopyrrolo[1,2-b]pyridazin-7-yl)-4-((4-hydroxybicyclo[2.2.2]octan-1-yl)amino)-N-(2-oxo-pyrrolidin-3-yl)nicotinamide]", "values": [{"measurement": "IC50", "setting": "IRAK4 enzyme", "value": "< 1", "unit": "nM"}, {"measurement": "EC50", "setting": "TNFα", "value": 206, "unit": "nM"}]}, {"smiles": "N#Cc1cnn2c(-c3cc(NC45CCC(O)(CC4)CC5)c(C(=O)N[C@H]4CCNC4=O)cn3)ccc2c1", "note": "[Example 960, (S)-6-(3-cyanopyrrolo[1,2-b]pyridazin-7-yl)-4-((4-hydroxybicyclo[2.2.2]octan-1-yl)amino)-N-(2-oxo-pyrrolidin-3-yl)nicotinamide]", "values": [{"measurement": "IC50", "setting": "IRAK4 enzyme", "value": 1, "unit": "nM"}, {"measurement": "EC50", "setting": "TNFα", "value": 316, "unit": "nM"}]}, {"smiles": "N#Cc1cnn2c(-c3cc(NC45CCC(O)(CC4)CC5)c(C(=O)NCC(F)(F)C(=O)N4CC(F)(F)C4)cn3)ccc2c1", "note": "[Example 961, 6-(3-cyanopyrrolo[1,2-b]pyridazin-7-yl)-N-(3-(3,3-difluoroazetidin-1-yl)-2,2-difluoro-3-oxopropyl)-4-((4-hydroxybicyclo[2.2.2]octan-1-yl)amino)nicotinamide]", "values": [{"measurement": "IC50", "setting": "IRAK4 enzyme", "value": 2, "unit": "nM"}, {"measurement": "EC50", "setting": "TNFα", "value": 382, "unit": "nM"}]}, {"smiles": "CN(C)C(=O)C(F)(F)CNC(=O)c1cnc(-c2ccc3cc(C(N)=O)cnn23)cc1NC12CCC(O)(CC1)CC2", "note": "[Example 962, 7-(5-((3-(dimethylamino)-2,2-difluoro-3-oxopropyl)carbamoyl)-4-((4-hydroxybicyclo[2.2.2]octan-1-yl)amino)pyridin-2-yl)pyrrolo[1,2-b]pyridazine-3-carboxamide]", "values": [{"measurement": "IC50", "setting": "IRAK4 enzyme", "value": 650, "unit": "nM"}, {"measurement": "EC50", "setting": "TNFα", "value": "> 10000", "unit": "nM"}]}, {"smiles": "NC(=O)c1cnn2c(-c3cc(NC45CCC(O)(CC4)CC5)c(C(=O)NCC(F)(F)C(=O)N4CC(F)(F)C4)cn3)ccc2c1", "note": "[Example 963, 7-(5-((3-(3,3-difluoro-azetidin-1-yl)-2,2-difluoro-3-oxopropyl)carbamoyl)-4-((4-hydroxybicyclo[2.2.2]octan-1-yl)amino)pyridin-2-yl)pyrrolo[1,2-b]pyridazine-3-carboxamide]", "values": [{"measurement": "IC50", "setting": "IRAK4 enzyme", "value": 394, "unit": "nM"}, {"measurement": "EC50", "setting": "TNFα", "value": "> 10000", "unit": "nM"}]}, {"smiles": "N#Cc1cnn2c(-c3cc(NC45CCC(O)(CC4)CC5)c(C(=O)NC4(CF)CC4)cn3)ccc2c1", "note": "[Example 964, 6-(3-cyanopyrrolo[1,2-b]pyridazin-7-yl)-N-(1-(fluoromethyl)cyclo-propyl)-4-((4-hydroxy-bicyclo[2.2.2]octan-1-yl)amino)nicotinamide]", "values": [{"measurement": "IC50", "setting": "IRAK4 enzyme", "value": 1, "unit": "nM"}, {"measurement": "EC50", "setting": "TNFα", "value": 68, "unit": "nM"}]}, {"smiles": "CC(C)(O)[C@H](F)CNC(=O)c1cnc(-c2ccc3cc(C#N)cnn23)cc1Nc1ccc(Cl)nc1", "note": "[Example 965, (R)-4-((6-chloropyridin-3-yl)amino)-6-(3-cyanopyrrolo[1,2-b]pyridazin-7-yl)-N-(2-fluoro-3-hydroxy-3-methylbutyl)nicotinamide]", "values": [{"measurement": "IC50", "setting": "IRAK4 enzyme", "value": "< 1", "unit": "nM"}, {"measurement": "EC50", "setting": "TNFα", "value": 26, "unit": "nM"}]}, {"smiles": "CC(C)(O)[C@H](F)CNC(=O)c1cnc(-c2ccc3cc(C#N)cnn23)cc1Nc1cnc(-c2ccc3cc(C#N)cnn23)nc1", "note": "[Example 966, (R)-6-(3-cyanopyrrolo[1,2-b]pyridazin-7-yl)-4-((2-(3-cyanopyrrolo[1,2-b]pyridazin-7-yl)pyrimidin-5-yl)amino)-N-(2-fluoro-3-hydroxy-3-methylbutyl) nicotinamide]", "values": [{"measurement": "IC50", "setting": "IRAK4 enzyme", "value": 2, "unit": "nM"}, {"measurement": "EC50", "setting": "TNFα", "value": "> 10000", "unit": "nM"}]}, {"smiles": "CC(C)(O)[C@H](F)CNC(=O)c1cnc(-c2ccc3cc(C#N)cnn23)cc1Nc1ccc(-c2cnoc2)nc1", "note": "[Example 967, (R)-6-(3-cyanopyrrolo[1,2-b]pyridazin-7-yl)-N-(2-fluoro-3-hydroxy-3-methylbutyl)-4-((6-(isoxazol-4-yl)pyridin-3-yl)amino) nicotinamide]", "values": [{"measurement": "IC50", "setting": "IRAK4 enzyme", "value": 3, "unit": "nM"}, {"measurement": "EC50", "setting": "TNFα", "value": 156, "unit": "nM"}]}, {"smiles": "Cc1nc(-c2ccc(Nc3cc(-c4ccc5cc(C#N)cnn45)ncc3C(=O)NC[C@@H](F)C(C)(C)O)cc2)no1", "note": "[Example 968, (R)-6-(3-cyanopyrrolo[1,2-b]pyridazin-7-yl)-N-(2-fluoro-3-hydroxy-3-methylbutyl)-4-((4-(5-methyl-1,2,4-oxadiazol-3-yl)phenyl)amino) nicotinamide]", "values": [{"measurement": "IC50", "setting": "IRAK4 enzyme", "value": 1, "unit": "nM"}, {"measurement": "EC50", "setting": "TNFα", "value": 81, "unit": "nM"}]}, {"smiles": "CC(C)(O)[C@H](F)CNC(=O)c1cnc(-c2ccc3cc(C#N)cnn23)cc1Nc1cnc(Cl)cn1", "note": "[Example 970, (R)-4-((5-chloropyrazin-2-yl)amino)-6-(3-cyano-pyrrolo[1,2-b]pyridazin-7-yl)-N-(2-fluoro-3-hydroxy-3-methylbutyl)nicotinamide]", "values": [{"measurement": "IC50", "setting": "IRAK4 enzyme", "value": "< 1", "unit": "nM"}, {"measurement": "EC50", "setting": "TNFα", "value": 57, "unit": "nM"}]}, {"smiles": "CC(C)(O)[C@H](F)CNC(=O)c1cnc(-c2ccc3cc(C#N)cnn23)cc1Nc1cnc(Cl)nc1", "note": "[Example 971, (R)-4-((2-chloropyrimidin-5-yl)amino)-6-(3-cyano-pyrrolo[1,2-b]pyridazin-7-yl)-N-(2-fluoro-3-hydroxy-3-methylbutyl)nicotinamide]", "values": [{"measurement": "IC50", "setting": "IRAK4 enzyme", "value": "< 1", "unit": "nM"}, {"measurement": "EC50", "setting": "TNFα", "value": 74, "unit": "nM"}]}, {"smiles": "CC(C)(O)[C@H](F)CNC(=O)c1cnc(-c2ccc3cc(C#N)cnn23)cc1Nc1cnc(-c2cn[nH]c2)cn1", "note": "[Example 972, (R)-4-((5-(1H-pyrazol-4-yl)pyrazin-2-yl)amino)-6-(3-cyanopyrrolo[1,2-b]pyridazin-7-yl)-N-(2-fluoro-3-hydroxy-3-methylbutyl)nicotinamide]", "values": [{"measurement": "IC50", "setting": "IRAK4 enzyme", "value": "< 1", "unit": "nM"}, {"measurement": "EC50", "setting": "TNFα", "value": 12, "unit": "nM"}]}, {"smiles": "CC(C)(O)[C@H](F)CNC(=O)c1cnc(-c2ccc3cc(C#N)cnn23)cc1Nc1ccc2nncn2c1", "note": "[Example 973, (R)-4-([1,2,4]triazolo[4,3-a]pyridin-6-ylamino)-6-(3-cyanopyrrolo[1,2-b]pyridazin-7-yl)-N-(2-fluoro-3-hydroxy-3-methylbutyl)nicotinamide]", "values": [{"measurement": "IC50", "setting": "IRAK4 enzyme", "value": 2, "unit": "nM"}, {"measurement": "EC50", "setting": "TNFα", "value": 1910, "unit": "nM"}]}, {"smiles": "CC(C)(O)[C@H](F)CNC(=O)c1cnc(-c2ccc3cc(C#N)cnn23)cc1Nc1ccc2nccn2c1", "note": "[Example 974, (R)-6-(3-cyanopyrrolo[1,2-b]pyridazin-7-yl)-N-(2-fluoro-3-hydroxy-3-methylbutyl)-4-(imidazo[1,2-a]pyridin-6-ylamino)nicotinamide]", "values": [{"measurement": "IC50", "setting": "IRAK4 enzyme", "value": 1, "unit": "nM"}, {"measurement": "EC50", "setting": "TNFα", "value": 112, "unit": "nM"}]}, {"smiles": "CC(C)(O)[C@H](F)CNC(=O)c1cnc(-c2ccc3cc(C#N)cnn23)cc1Nc1ccn2nccc2c1", "note": "[Example 975, (R)-6-(3-cyanopyrrolo[1,2-b]pyridazin-7-yl)-N-(2-fluoro-3-hydroxy-3-methyl-butyl)-4-(pyrazolo[1,5-a]pyridin-5-ylamino) nicotinamide]", "values": [{"measurement": "IC50", "setting": "IRAK4 enzyme", "value": "< 1", "unit": "nM"}, {"measurement": "EC50", "setting": "TNFα", "value": 67, "unit": "nM"}]}]}
